Measurements from patent US8501960B2, “Saxagliptin intermediates, saxagliptin polymorphs, and processes for preparation thereof” (Assia Chemical Industries Ltd., priority 2010, dated 2013).

Test: Stability of crystalline compound M and Saxagliptin monohydrate form H-1 on storage, measured by HPLC
Format: physicochemical
Experimental: Unless stated otherwise, the HPLC peak % referred to herein were measured using a UV detection having a wavelength of 220 nm.
Instrumental and Chromatographic Conditions
Instrument: HPLC system equipped with UV detector.
• Flow rate: about 1 mL/min • Injection volume: about 10 μL • Column: Waters XBridge C8, 150 mm×4.6 mm, 3.5 μm • Column temperature: 25° C. • Detector: DAD (UV) at wavelengths 220 nm • Mobile phase: Gradient elution with Solution A and Solution B (see Table 1) • Solution A: Buffer solution. Dissolve in water about 24.0 g of sodium octyl-1-sulfonate in 1000 mL volumetric flask, make up to the volume with water and adjust pH to 3.3 with phosphoric acid. • Solution B: Acetonitrile, HPLC grade
• Stop time: 25 minutes • Post time: 5 minutes • Diluent: Prepare a solution of 25% acetonitrile, 25% methanol, and 50% of the buffer solution (the one that is used in gradient elution). The Following Chemicals (or Equivalent) Should Be Used:
• 1. Blank: Use the diluent. • 2. Sample preparation: Prepare SXG sample solution with concentration of about 1.0 mg/mL prepare in duplicate Procedure
Samples of crystalline compound M and Saxagliptin monohydrate form H-1 were prepared and the amount of Saxagliptin and the amount of cyclic amidine were measured by HPLC at time zero (=time 0). Samples of crystalline compound M and Saxagliptin monohydrate form H-1 were maintained for 2 weeks, 1 month and 2 months, at the conditions described in the following table. Afterwards, the amount of Saxagliptin and the amount of cyclic amidine was measured by HPLC.

CA = cyclic amidine (amount by HPLC) (40° C./40% RH, 1 month) | SXG = Saxagliptin (amount by HPLC) (40° C./40% RH, 1 month) | CA = cyclic amidine (amount by HPLC) (40° C./40% RH, 2 months) | SXG = Saxagliptin (amount by HPLC) (40° C./40% RH, 2 months) | CA = cyclic amidine (amount by HPLC) (40° C./40% RH, 2 weeks) | SXG = Saxagliptin (amount by HPLC) (40° C./40% RH, 2 weeks) | CA = cyclic amidine (amount by HPLC) (40° C./40% RH, Time 0) | SXG = Saxagliptin (amount by HPLC) (40° C./40% RH, Time 0) | CA = cyclic amidine (amount by HPLC) (50° C./0% RH, 1 month) | SXG = Saxagliptin (amount by HPLC) (50° C./0% RH, 1 month) | CA = cyclic amidine (amount by HPLC) (50° C./0% RH, 2 months) | SXG = Saxagliptin (amount by HPLC) (50° C./0% RH, 2 months) | CA = cyclic amidine (amount by HPLC) (50° C./0% RH, 2 weeks) | SXG = Saxagliptin (amount by HPLC) (50° C./0% RH, 2 weeks) | CA = cyclic amidine (amount by HPLC) (50° C./0% RH, Time 0) | SXG = Saxagliptin (amount by HPLC) (50° C./0% RH, Time 0) | SMILES | further results
CA = 0.50% | SXG = 99.0% | CA = 0.61% | SXG = 99.0% | CA = 0.53% | SXG = 99.0% | CA = 0.20% | SXG = 99.6% | CA = 0.27% | SXG = 99.4% | CA = 0.31% | SXG = 99.4% | CA = 0.25% | SXG = 99.6% | CA = 0.20% | SXG = 99.6% | CC(C)=N[C@H](C(=O)N1[C@H](C#N)C[C@@H]2C[C@@H]21)C12CC3CC(CC(O)(C3)C1)C2 [crystalline Compound M, (1S,3S,5S)-2-[(2S)-2-propan-2-ylideneamino-2-(3-hydroxy-1-adamantyl)acetyl]-2-azabicyclo[3.1.0]-hexane-3-carbonitrile] | chemical stability (compared to Saxagliptin monohydrate form H-1): enhanced chemical stability
CA = 5.8% | SXG = 86.8% | CA = 11.5% | SXG = 77.4% | CA = 4.0% | SXG = 93.1% | CA = 0.50% | SXG = 98.9% | CA = 1.3% | SXG = 96.9% | CA = 2.1% | SXG = 94.8% | CA = 1.2% | SXG = 97.8% | CA = 0.50% | SXG = 98.9% | N#C[C@@H]1C[C@@H]2C[C@@H]2N1C(=O)[C@@H](N)C12CC3CC(CC(O)(C3)C1)C2 [Saxaglitpin base monohydrate, Form H-1, (1S,3S,5S)-2-((2S)-2-Amino-2-(3-hydroxyadamantan-1-yl)-acetyl)-2-azabicyclo[3.1.0]hexane-3-carbonitrile] | RRT1.14 (impurity amount by HPLC) (40° C./40% RH, 1 month): RRT1.14 = 4.1%; RRT1.14 (impurity amount by HPLC) (40° C./40% RH, 2 months): RRT1.14 = 7.7%; RRT1.14 (impurity amount by HPLC) (40° C./40% RH, 2 weeks): RRT1.14 = 2.1%; RRT1.14 (impurity amount by HPLC) (50° C./0% RH, 1 month): RRT1.14 = 1.1%; RRT1.14 (impurity amount by HPLC) (50° C./0% RH, 2 months): RRT1.14 = 2.51%; RRT1.14 (impurity amount by HPLC) (50° C./0% RH, 2 weeks): RRT1.14 = 0.4%
